Laboratory results published in patent US9522888B2, “Substituted bicyclic compounds” (BRISTOL-MYERS SQUIBB COMPANY, priority 2014, dated 2016).

Tests used:
[1] = target: S1P1 (membranes prepared from S1P1/CHO cells) (Homo sapiens (Human), UniProt P21453); assay: Receptor [35S] GTPγS binding assay (S1P1 GTPγS); format: biochemical; conditions: phosphate examples; read-out: S1P1 GTPγS
Procedure: (§1) Receptor [^35S] GTPγS Binding Assays: (S1P1 GTPγS/S1P3 GTPγS)
Compounds were loaded in a 384 Falcon v-bottom plate (0.5 μl/well in a 11 point, 3-fold dilution). Membranes prepared from S1P1/CHO cells or EDG3-Gal5-bla HEK293T cells (EDG3 equivalent S1P3) were added to the compound plate (40 μl/well, final protein 3 μg/well) with MULTIDROP®. [^35S] GTP (1250 Ci/mmol, Perkin Elmer) was diluted in assay buffer: 20 mM HEPES, pH7.5, 10 mM MgCl2, 150 mM NaCl, 1 mM EGTA (ethylene glycol tetraacetic acid), 1 mM DTT (Dithiothreitol), 10 μM GDP, 0.1% fatty acid free BSA, and 10 μg/ml Saponin to 0.4 nM. 40 μl of the [^35S] GTP solution was added to the compound plate with a final concentration of 0.2 nM. The reaction was kept at room temperature for 45 min. At the end of incubation, all the mixtures in the compound plate were transferred to Millipore 384-well FB filter plates via the VELOCITY11® Vprep liquid handler. The filter plate was washed with water 4 times by using the manifold Embla plate washer and dried at 60° C. for 45 min. MicroScint 20 scintillation fluid (30 μl) was added to each well for counting on the Packard TOPCOUNT®. […]

human S1P1 = human S1P1 (Homo sapiens (Human), UniProt P21453); assay: S1P1 binding assay (33P-S1P radioligand competition, CHO cell membranes); conditions: phosphate examples; read-out: S1P1 Binding
Chain of human S1P1 (P21453 whole entry): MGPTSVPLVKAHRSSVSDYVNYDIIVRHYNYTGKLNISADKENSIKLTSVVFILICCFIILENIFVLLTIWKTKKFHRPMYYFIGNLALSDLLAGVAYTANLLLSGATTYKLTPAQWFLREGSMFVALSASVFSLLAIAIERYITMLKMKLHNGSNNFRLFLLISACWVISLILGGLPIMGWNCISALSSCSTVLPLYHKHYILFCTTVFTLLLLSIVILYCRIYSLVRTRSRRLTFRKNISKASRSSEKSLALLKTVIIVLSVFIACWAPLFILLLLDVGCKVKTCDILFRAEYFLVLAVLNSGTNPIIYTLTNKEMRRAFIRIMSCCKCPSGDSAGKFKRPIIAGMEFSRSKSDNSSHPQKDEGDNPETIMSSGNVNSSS
Procedure: Membranes were prepared from CHO cells expressing human S1P1. Cells pellets (1×10^9 cells/pellet) were suspended in buffer containing 20 mM HEPES (4-(2-hydroxyethyl)-1-piperazineethanesulfonic acid), pH 7.5, 50 mM NaCl, 2 mM EDTA (Ethylenediaminetetraacetic acid) and Protease Inhibitor cocktail (Roche), and disrupted on ice using the Polytron homogenizer. The homogenate was centrifuged at 20,000 rpm (48,000 g) and the supernatant was discarded. The membrane pellets were resuspended in buffer containing 50 mM HEPES, pH 7.5, 100 mM NaCl, 1 mM MgCl2, 2 mM EDTA and stored in aliquots at −80° C. after protein concentration determination.

hS1P1/CHO cells = hS1P1/CHO cells (Homo sapiens (Human), UniProt P21453); assay: hS1P1 ERK phosphorylation (S1P1 pERK); format: cell-based; conditions: phosphate examples
Chain of hS1P1/CHO cells (P21453 whole entry): as above
Procedure: hS1P1 ERK Phosphorylation (S1P1 pERK)
hS1P1/CHO cells were plated into BD Amine 384-well plates the day before the assay. On the day of the assay, growth medium was removed and replaced with serum-free medium (Ham's F-12 Invitrogen) and incubated for 2 hours. Test compounds pre-diluted in HBSS (Gibco)/20 mM HEPES (Gibco) were transferred to the cell plates and incubated for 7 minutes at 37° C. Cells were lysed in lysis buffer (Perkin Elmer) and phospho-ERK was measured using the SureFire pERK kit (Perkin Elmer) as described by the manufacturer. Data was plotted as percentage activation of the test compound relative to the efficacy of 10 μM S1P.

[2] = target: S1P3 (membranes prepared from EDG3-Gal5-bla HEK293T cells) (Homo sapiens (Human), UniProt Q99500); assay: Receptor [35S] GTPγS binding assay (S1P3 GTPγS); format: biochemical; conditions: phosphate examples; read-out: S1P3 GTPγS
Chain of S1P3 (membranes prepared from EDG3-Gal5-bla HEK293T cells) (Q99500 whole entry): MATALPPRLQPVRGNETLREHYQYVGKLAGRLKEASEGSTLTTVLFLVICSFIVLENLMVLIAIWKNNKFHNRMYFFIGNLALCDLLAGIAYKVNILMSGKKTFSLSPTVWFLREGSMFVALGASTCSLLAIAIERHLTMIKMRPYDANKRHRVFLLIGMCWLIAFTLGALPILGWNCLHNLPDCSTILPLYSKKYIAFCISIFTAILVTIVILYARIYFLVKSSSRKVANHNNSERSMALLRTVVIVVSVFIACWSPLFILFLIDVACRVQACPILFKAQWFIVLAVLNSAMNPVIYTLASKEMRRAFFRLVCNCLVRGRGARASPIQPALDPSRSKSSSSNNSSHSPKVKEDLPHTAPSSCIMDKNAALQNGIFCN
Procedure: as §1
Compounds were loaded in a 384 Falcon v-bottom plate (0.5 μl/well in a 11 point, 3-fold dilution). Membranes prepared from S1P1/CHO cells or EDG3-Gal5-bla HEK293T cells (EDG3 equivalent S1P3) were added to the compound plate (40 μl/well, final protein 3 μg/well) with MULTIDROP®. [^35S] GTP (1250 Ci/mmol, Perkin Elmer) was diluted in assay buffer: 20 mM HEPES, pH7.5, 10 mM MgCl2, 150 mM NaCl, 1 mM EGTA (ethylene glycol tetraacetic acid), 1 mM DTT (Dithiothreitol), 10 μM GDP, 0.1% fatty acid free BSA, and 10 μg/ml Saponin to 0.4 nM. 40 μl of the [^35S] GTP solution was added to the compound plate with a final concentration of 0.2 nM. The reaction was kept at room temperature for 45 min. At the end of incubation, all the mixtures in the compound plate were transferred to Millipore 384-well FB filter plates via the VELOCITY11® Vprep liquid handler. The filter plate was washed with water 4 times by using the manifold Embla plate washer and dried at 60° C. for 45 min. MicroScint 20 scintillation fluid (30 μl) was added to each well for counting on the Packard TOPCOUNT®.
A smaller value for GTPγS S1P1 EC50 value indicated greater activity for the compound in the GTPγS S1P1 binding assay. A larger value for the GTPγS S1P3 EC50 value indicated less activity in the GTPγS S1P3 binding assay. […] Thus the compounds of the present invention may be used in treating, preventing, or curing various S1P1 receptor-related conditions while reducing or minimizing the side effects due to S1P3 activity. The selectivity of the compounds of the present invention indicate their potential use in treating, preventing, or curing autoimmune and inflammatory diseases such as multiple sclerosis, rheumatoid arthritis, inflammatory bowel disease, lupus, psoriasis, or vascular diseases, while reducing or minimizing possible side effects due to S1P3 activity. Other potential uses of the compounds of the present invention include minimizing or reducing rejection of transplanted organs, while reducing or minimizing side effects due to S1P3 activity.

Chain of S1P1 (membranes prepared from S1P1/CHO cells) (P21453 whole entry): as the sequence (P21453 whole entry) above

| SMILES | EC50 [1] [nM] | IC50 (human S1P1) [nM] | EC50 (hS1P1/CHO cells) [nM] | EC50 [2] [nM] |
| --- | --- | --- | --- | --- |
| COC(C)CCCCC1CCc2cc([C@H]3CC[C@](N)(COP(=O)(O)O)C3)ccc2C1 (single isomer, unassigned) [compound 611] | < 10 | < 10 | < 10 | > 625 |
| CC(C)c1cccc(OC[C@@H]2CCc3cc([C@H]4CC[C@](N)(COP(=O)(O)O)C4)ccc3C2)c1 [compound 478] | 10 to 100 | 10 to 100 | 10 to 100 | > 625 |
| N[C@@]1(COP(=O)(O)O)CC[C@@H](c2ccc3c(c2)CC[C@H](OCCOCc2cccs2)C3)C1 (single isomer, unassigned) [compound 589] | 10 to 100 | < 10 | < 10 | > 100 |
| N[C@]1(COP(=O)(O)O)CC[C@H](c2ccc3c(c2)CC[C@@H](CCCC2CCOCC2)C3)C1 [compound 557] | 10 to 100 | 10 to 100 | 10 to 100 | > 625 |
| CC/C=C/CC[C@@H]1CCc2cc([C@H]3CC[C@](N)(COP(=O)(O)O)C3)ccc2C1 [compound 650] | 100 to 1000 | 10 to 100 | 10 to 100 | > 625 |
| CCCCOC[C@@H]1COc2cc([C@H]3CC[C@](N)(COP(=O)(O)O)C3)ccc2O1 [compound 414] | 10 to 100 | < 10 | 1000 to 10000 | > 625 |
| CCOc1cccc(CO[C@@H]2CCc3cc([C@H]4CC[C@](N)(COP(=O)(O)O)C4)ccc3C2)c1 [compound 444] | < 10 | < 10 | < 10 | > 625 |
| N[C@]1(COP(=O)(O)O)CC[C@H](c2ccc3c(c2)CC[C@H](C[S+]([O-])c2ccccc2)C3)C1 (stereo partly drawn) [Example 667, ((1R,3S)-1-amino-3-((6S)-6-((phenylsulfinyl)methyl)-5,6,7,8-tetrahydronaphthalen-2-yl)cyclopentyl)methyl dihydrogen phosphate] | 100 to 1000 | 100 to 1000 | 100 to 1000 | > 625 |
| CC/C=C\CC[C@@H]1CCc2cc([C@H]3CC[C@](N)(COP(=O)(O)O)C3)ccc2C1 [compound 651] | 10 to 100 | 10 to 100 | 10 to 100 | > 625 |
| COc1cccc(F)c1CC[C@H]1CCc2cc([C@@H]3CC[C@@](N)(COP(=O)(O)O)C3)ccc2C1 (single isomer, unassigned) [compound 607] | 100 to 1000 | 100 to 1000 | 10 to 100 | > 625 |
| C/C=C\CCCC[C@H]1CCc2cc([C@H]3CC[C@](N)(COP(=O)(O)O)C3)ccc2C1 [compound 660] | < 10 | < 10 | 10 to 100 | > 625 |
| N[C@@]1(COP(=O)(O)O)CC[C@@H](c2ccc3c(c2)CC[C@@H](CCc2ccc4ccccc4n2)C3)C1 [compound 605] | < 10 | < 10 | < 10 | > 625 |
| CCCSC[C@H]1CCc2cc([C@H]3CC[C@](N)(COP(=O)(O)O)C3)ccc2C1 [compound 532] | < 10 | < 10 | < 10 | > 625 |
| Cc1ccccc1OC[C@H]1CCc2cc([C@H]3CC[C@](N)(COP(=O)(O)O)C3)ccc2C1 [compound 468] | 10 to 100 | < 10 | 10 to 100 | > 625 |
| CCCCC[C@@H]1CCc2cc([C@@H]3CC[C@@](N)(COP(=O)(O)O)C3)ccc2C1 [compound 577] | < 10 | < 10 | < 10 | > 625 |
| CCCCC1CCc2cc([C@H]3CC[C@](N)(COP(=O)(O)O)C3)ccc2C1=O (some centres unmarked) [compound 635] | 10 to 100 | < 10 | < 10 | > 625 |
| Cc1ccccc1OC[C@@H]1CCc2cc([C@H]3CC[C@](N)(COP(=O)(O)O)C3)ccc2C1 [compound 469] | 10 to 100 | 10 to 100 | < 10 | > 625 |
| C=CCCOC[C@@H]1CCc2cc([C@H]3CC[C@](N)(COP(=O)(O)O)C3)ccc2C1 [compound 452] | < 10 | < 10 | < 10 | > 625 |
| CCCCCC1CCc2cc([C@H]3CC[C@](N)(COP(=O)(O)O)C3)ccc2C1 (some centres unmarked) [compound 575] | 10 to 100 | 10 to 100 | < 10 | > 625 |
| COc1cc(OC[C@@H]2CCc3cc([C@H]4CC[C@](N)(COP(=O)(O)O)C4)ccc3C2)ccc1C(C)(C)C [compound 498] | 100 to 1000 | 10 to 100 | 10 to 100 | > 625 |
| CCCCCCC1CCc2cc([C@@H]3CC[C@](N)(COP(=O)(O)O)C3)ccc2O1 (some centres unmarked) [compound 420] | 10 to 100 | 10 to 100 | 1000 to 10000 | > 625 |
| CCCC=CCOC[C@@H]1CCc2cc([C@H]3CC[C@](N)(COP(=O)(O)O)C3)ccc2C1 [compound 462] | < 10 | < 10 | < 10 | > 50 |
| CCCCCC[C@@H]1COc2cc([C@@H]3CC[C@](N)(COP(=O)(O)O)C3)ccc2C1 [compound 423] | 100 to 1000 | 100 to 1000 | 10 to 100 | > 625 |
| CCCCC(C)(C)C(=O)OC1CCc2cc([C@H]3CC[C@@](N)(COP(=O)(O)O)C3)ccc2C1 (some centres unmarked) [compound 624] | < 10 | 1000 to 10000 | 100 to 1000 | > 625 |
| CC(C)CCSC[C@H]1CCc2cc([C@H]3CC[C@](N)(COP(=O)(O)O)C3)ccc2C1 [compound 511] | 10 to 100 | < 10 | < 10 | > 625 |
| COc1ccc(C[C@@H]2CCc3cc([C@H]4CC[C@](N)(COP(=O)(O)O)C4)ccc3C2)c(C)c1 [compound 546] | 100 to 1000 | 100 to 1000 | 10 to 100 | > 625 |
| CC(C)CC/C=C/[C@@H]1CCc2cc([C@H]3CC[C@](N)(COP(=O)(O)O)C3)ccc2C1 [compound 645] | 10 to 100 | 100 to 1000 | 10 to 100 | > 625 |
| CCCCOCCO[C@H]1CCc2cc([C@@H]3CC[C@@](N)(COP(=O)(O)O)C3)ccc2C1 [compound 591] | 10 to 100 | 10 to 100 | < 10 | > 625 |
| COCc1ccc(C[C@@H]2CCc3cc([C@H]4CC[C@](N)(COP(=O)(O)O)C4)ccc3C2)cc1 [compound 550] | 10 to 100 | 10 to 100 | < 10 | > 625 |
